The subject of one assay is E. coli. Kind of assay: Bacterial susceptibility testing, MIC by broth microdilution (CLSI). Format: cell-based. The conditions noted are these: Escherichia coli, cation adjusted Mueller-Hinton Broth, 35° C., 18-24 h. How it is done: (§1) Minimal inhibitory concentrations (MIC) were determined by the broth microdilution method in accordance with the Clinical and Laboratory Standards Institute (CLSI) guidelines. In brief, organism suspensions were adjusted to a 0.5 McFarland standard to yield a final inoculum between 3×10^5 and 7×10^5 colony-forming units (CFU)/mL. Drug dilutions and inocula were made in sterile, cation adjusted Mueller-Hinton Broth (Beckton Dickinson). An inoculum volume of 100 μL was added to wells containing 100 μL of broth with 2-fold serial dilutions of drug. All inoculated microdilution trays were incubated in ambient air at 35° C. for 18-24 h. Following incubation, the lowest concentration of the drug that prevented visible growth (OD600 nm<0.05) was recorded as the MIC. Performance of the assay was monitored by the use of laboratory quality-control strains and levofloxacin, a compound with a defined MIC spectrum, in accordance with CLSI guidelines.

The test system of another assay is S. aureus. The description is as above. It is filed as cell-based. The note with it: Staphylococcus aureus, cation adjusted Mueller-Hinton Broth, 35° C., 18-24 h. How it is done: as §1

≈ marks a conversion by molar mass, not a printed value. Where only a bound is given, the exact number is not on record here.

In the case of `CS(=O)(=O)C(Cc1ccc(C#Cc2ccc(CN3CCOCC3)cc2)cc1)c1occc(=O)c1O` (stereo not drawn) [Compound 1, 3-hydroxy-2-(1-(methylsulfonyl)-2-(4-((4-(morpholinomethyl)phenyl)ethynyl)phenyl)ethyl)-4H-pyran-4-one], the MIC – broadly, the lowest concentration found to suppress growth – with E. coli was greater than 32 µg/mL.

On to `O=C(Nc1ccc(C#CC#Cc2ccccc2)cc1)c1occc(=O)c1O` [Compound 2, 3-hydroxy-4-oxo-N-(4-(phenylbuta-1,3-diyn-1-yl)phenyl)-4H-pyran-2-carboxamide], for which, in the assay on E. coli, the MIC is greater than 32 µg/mL.

Consider `CS(=O)(=O)NCC(Cc1ccc(-c2ccccc2)cc1)c1occc(=O)c1O` (stereo not drawn) [Compound 3, N-(3-([1,1′-biphenyl]-4-yl)-2-(3-hydroxy-4-oxo-4H-pyran-2-yl)propyl)methanesulfonamide], for which the MIC against E. coli and in the assay with S. aureus was greater than 32 µg/mL each time.

Turning to `CS(=O)(=O)CC(Cc1ccc(-c2ccccc2)cc1)c1occc(=O)c1O` (stereo not drawn) [Compound 4, 2-(1-([1,1′-biphenyl]-4-yl)-3-(methylsulfonyl)propan-2-yl)-3-hydroxy-4H-pyran-4-one], the MIC against E. coli and in the assay with S. aureus was greater than 32 µg/mL throughout.

For `O=c1ccoc(C(CO)Cc2ccc(-c3ccccc3)cc2)c1O` (stereo not drawn) [Compound 5, 2-(1-([1,1′-biphenyl]-4-yl)-3-hydroxypropan-2-yl)-3-hydroxy-4H-pyran-4-one], the MIC with E. coli and in the assay on S. aureus was greater than 32 µg/mL throughout.

For the molecule `NCC(Cc1ccc(-c2ccccc2)cc1)c1occc(=O)c1O` (stereo not drawn) [Compound 6, 2-(1-([1,1′-biphenyl]-4-yl)-3-aminopropan-2-yl)-3-hydroxy-4H-pyran-4-one], the MIC in the assay with E. coli and in the assay on S. aureus was 8 µg/mL (≈ 24.9 µM) throughout.

Take `O=c1ccoc(CN(CCO)c2ccc(-c3ccccc3)cc2)c1O` [Compound 7, 2-(([1,1′-biphenyl]-4-yl(2-hydroxyethyl)amino)methyl)-3-hydroxy-4H-pyran-4-one]: the MIC against E. coli and in the assay on S. aureus was greater than 32 µg/mL throughout.

These data come from patent publication US11021471B2, “Antibacterial compounds” (FORGE THERAPEUTICS, INC., priority 2017, dated 2021).
